Data as given in patent US8673360B2, “Compositions that enable rapid-acting and highly absorptive intranasal administration” (Shin Nippon Biomedical Laboratories, Ltd., priority 2004, dated 2014).

Experiments:
[1] = Intranasal administration of tropisetron in cynomolgus monkeys: plasma tropisetron by HPLC, against intravenous injection; type: in vivo
Method: A single dose of an intranasal delivery composition was nasally administered to cynomolgus monkeys (body weight: 4.3 to 7.2 kg). Each composition was encapsulated and administered nasally using a device for nasal administration (Bioactis Co. Ltd.).
27.5 mg of tropisetron hydrochloride (equivalent to 25 mg of tropisetron free base) (Sigma), which is an antiemetic agent, and 72.5 mg of crystalline cellulose (Asahi Kasei: Avicel™ PH-F20) were mixed thoroughly in a mortar. The obtained tropisetron composition was prepared and 4.4 mg tropisetron hydrochloride (equivalent to 4.0 mg of tropisetron free base) per head was administered nasally to male cynomolgus monkeys weighing from 6.3 to 7.2 kg (n=3).
The injection was given intravenously to male cynomolgus monkeys weighing 6.9 and 7.2 kg (n=2), at 0.22 mg tropisetron hydrochloride (equivalent to 0.20 mg of tropisetron free base) per kg weight.
The plasma concentration of tropisetron free base after administration was determined by the HPLC method.
The time course of plasma tropisetron concentration after intravenous injection was subjected to a 2-compartment model analysis using the linear least-square method. The area under the theoretical plasma concentration vs. time curve (AUC) was determined based on the theoretical plasma tropisetron concentration calculated.

[2] = Intranasal administration of oxycodone in cynomolgus monkeys: plasma oxycodone by HPLC, against subcutaneous injection

| SMILES | Time at which the maximum plasma concentration of tropisetron was achieved ([1]; intranasal, time course of average plasma concentrations) [min] | bioavailability ([1]; male, cynomolgus monkey, plasma, other: intranasal, nasal, 4 mg/body (0.59 mg/kg), compared with intravenous injection, read-out: BA (bioavailability) of tropisetron) [%] | Time at which the maximum plasma concentration of oxycodone was reached ([2]; intranasal, time course of plasma concentrations) [min] | bioavailability ([2]; male, cynomolgus, cynomolgus monkey, plasma, other: intranasal, […]) [%] |
| --- | --- | --- | --- | --- |
| CN1[C@@H]2CC[C@H]1C[C@@H](OC(=O)c1c[nH]c3ccccc13)C2 [tropisetron] | 5 | 73.4 | – | – |
| COc1ccc2c3c1O[C@H]1C(=O)CC[C@@]4(O)[C@@H](C2)N(C)CC[C@]314 [oxycodone] | – | – | 20 | 71.7 |
